Reference: PMC10812672, “Short Antimicrobial Peptide Derived from the Venom Gland Transcriptome of Pamphobeteus verdolaga Increases Gentamicin Susceptibility of Multidrug-Resistant Klebsiella pneumoniae” (Antibiotics, 2023)

How the values were obtained:
S. aureus = conditions: custom database compiled from public databases and PubMed; averaged where multiple reports; cited from earlier work
Excerpt: (§1) Agelaia-CP Agelaia pallipes […] […] 13 1 4.00 1.25 s IsCT [EK7. GP8. Opisthacanthus SK11] madagascariensi […] 13 4 2.00 1.17 s Opisthacanthus IsCT [EK7] madagascariensi […] 13 3 2.00 1.00 s Opisthacanthus IsCT [WL6. SK11 ] madagascariensi ILGKILKGIKKLF 13 4 2.00 2.00 s Opisthacanth ... || (+ 2 further places)

E. coli = conditions: custom database compiled from public databases and PubMed; averaged where multiple reports; cited from earlier work
Excerpt: as §1

[1] = test system: multidrug-resistant (MDR) strain of K. pneumoniae, clinical isolate; test: microbe, parasite or virus in culture; type: cell-based, Klebsiella pneumoniae; conditions: for inhibition at 100 µM: Klebsiella pneumoniae, read-out: maximum growth inhibition
Experimental: A multidrug-resistant (MDR) strain of K. pneumoniae was identified and isolated from a tertiary-level hospital in Medellin, Colombia, using the VITEK-2 system (bioMérieux, Marcy-l’Étoile, France). The MDR strain was evaluated against several antibiotics at concentrations of 1.56–100 μM. […] In contrast, the strain was susceptible to doxycycline (Supplementary Figure S7g) and chloramphenicol (Supplementary Figure S7h), with MICs of 50 μM and 100 µM, respectively (Table 3). […] All of P. verdolaga’s AMPs were evaluated against the clinical isolate at concentrations of 1.56–200 µM (Supplementary Figure S8). […] A growth inhibition kinetic assay was conducted. […] All of P. verdolaga’s peptides at 100 μM induced morphological changes in the MDR K. pneumoniae, indicating membrane interactions, even though no significant inhibition was observed (Supplementary Figure S9).
The evaluation of the antimicrobial activity of the peptides was conducted using the CLSI’s broth microdilution method for bacterial susceptibility testing. For the screening phase, peptides were evaluated at a single 30 μM concentration, in triplicate and in three independent assays, against the E. coli ATCC® 8739, E. coli ATCC® 25922, S. aureus ATCC® 6538, or S. aureus ATCC® 29213 reference USP and CLSI strains. For the determination of MIC, MBC, or IC50, peptides or antibiotics were evaluated in concentrations between 1.56–200 µM. These evaluations were conducted in triplicate and in three independent assays, against the E. coli ATCC® 25922, S. aureus ATCC® 29213, E. faecalis ATCC® 49532, P. aeruginosa ATCC® 9027, and K. pneumoniae ATCC® BAA-1705, or the clinically isolated MDR strain. In detail, 1 mL of a glycerol stock solution of the ATCC® or clinically isolated bacterial strain was added to 9 mL of Mueller-Hinton Broth and incubated for 18 h, 180 rpm and 37 °C (Incubator 1000, Heidolph Instruments, Schwabach, Germany). After the incubation, 1 mL of the previous solution was transferred to a new recipient containing 9 mL of fresh Mueller-Hinton broth and incubated for 4 h, 180 rpm and 37 °C (Incubator 1000, Heidolph Instruments, Schwabach, Germany). During the second incubation, the peptides or the antibiotics were dissolved in PBS pH 7.20 in concentrations between 19.53–2500 µM (MC5 Micro Balance, Sartorius AG, Göttingen, Germany). An amount of 10 µL of either peptide or antibiotic was dispensed in triplicate in 96-well flat bottom culture plates, along with 10 µL of PBS (Negative activity control), BTM-P1 (Positive activity control), or 10 µL of Mueller-Hinton broth (Blank); then, 110 µL of Mueller-Hinton broth was poured in all wells. Following this, the bacteria were suspended in Mueller-Hinton broth up to a concentration of approximately 1.50 × 10^8 CFU/mL, as measured by optical density at 600 nm between 0.06 to 0.11 (0.5 McFarland standard), in a Multiskan SkyHigh spectrophotometer (ThermoFisher Scientific, Waltham, MA, USA). Amounts of 5 µL of the 1.50 × 10^8 CFU/mL suspension were added to each well (except for the blank) for a final well concentration of approximately 6 × 10^6 CFU/mL. The plate was incubated for 24 h at 37 °C (BE 500, Memmert GmbH, Büchenbach, Germany) and optical density was measured at 600 nm in a Multiskan SkyHigh spectrophotometer (ThermoFisher Scientific, Waltham, MI, USA). Following the measurement of optical density, plates were visually inspected to determine the MIC. Subsequently, 100 µL of the concentration associated to the MIC and 100 µL of the next higher concentration were added to Petri dishes containing Mueller-Hinton Agar. The dishes were then incubated for 24 h at 37 °C (BE 500, Memmert GmbH, Büchenbach, Germany). After incubation, the Petri dishes were visually inspected, and the MBC was determined in the absence of growth. IC50 values were interpolated from regressions with correlation values above 0.70. […]

Row | Compound | MIC S. aureus (S. aureus) | MIC E. coli (E. coli) | inhibition at 100 µM [1] | maximum growth inhibition ([1]; MDR K. pneumoniae, at 100 μM, complete resistance)
1 | GFLSILKKVLPKVMAHMK [Melectin, cDB AMP; Melecta albifrons] | 12.80 µM | 10.37 µM | – | –
2 | CN(C)[C@@H]1C(O)=C(C(N)=O)C(=O)[C@@]2(O)C(O)=C3C(=O)c4c(O)cccc4[C@@](C)(O)[C@H]3[C@H](O)[C@@H]12 [oxytetracycline] | – | – | ≤ 20% | –
3 | CC1(C)S[C@@H]2[C@H](NC(=O)[C@H](N)c3ccccc3)C(=O)N2[C@H]1C(=O)O [ampicillin] | – | – | ≤ 20% | –
4 | FLGSLFSIGSKLLPGVIKLFQRKKQ [Im-5, cDB AMP; Isometrus maculatus] | 3.75 µM | 10.00 µM | – | –
5 | ACHAHCQSVGRRGGYCGNFRMTCYCY [Midgut defensin G2, cDB AMP; Haemaphysalis longicornis] | 5.09 µM | 5.94 µM | – | –
6 | VWLSALKFIGKHLAKHQLSKL [Lycosin-II, cDB AMP; Lycosa singoriensis] | 3.10 µM | 12.50 µM | – | –
7 | FLFKLIPKAIKGLLKAFK [AcrAP2 [S4K.N8K.S11K.S15K], cDB AMP; Androctonus crassicauda] | 4.00 µM | 8.00 µM | – | –
8 | GMASLLAKVLPHVVKLIK [Codesane, cDB AMP; Colletes daviesanus] | 3.70 µM | 3.70 µM | – | –
9 | SIGRRGGYCAGIIKQTCTCYR [Longicin (53-73), cDB AMP; Haemaphysalis longicornis] | 2.00 µM | 2.00 µM | – | –
10 | LNWKAILKHIIK [PNG-1/5, cDB AMP; Panurgus calcaratus] | 5.30 µM | 2.30 µM | – | –
11 | FWGALAKGALKLIGSLFSSFSKKD [Pandinin-2 [P14G], cDB AMP; Pandinus imperator] | 12.50 µM | 12.50 µM | – | –
12 | GLLSKFGRLARKLARVIPKV [Pilosulin-2, cDB AMP; Myrmecia pilosula] | 4.00 µM | 1.33 µM | – | –
13 | LNWGAILKKIIK [PNG-1/9, cDB AMP; Panurgus calcaratus] | 7.30 µM | 4.30 µM | – | –
14 | GFGMALKLLKKVL [Macropin 1, cDB AMP; Macropis fulvipes] | 3.70 µM | 3.00 µM | – | –
15 | FLFKLIPKAIKGLIKAFK [AcrAP1a [S4K.H8K.S11K.S15K]] [cDB AMP; Androctonus crassicauda] | 4.00 µM | 8.00 µM | – | –
16 | ACQFWSCNSSCISRGYRQGYCWGIQYKYCQCQ [Defensin-1, cDB AMP; Centruroides limpidus limpidus] | 13.08 µM | 13.08 µM | – | –
17 | PFKLSLHL [Jellein-1, cDB AMP; Apis mellifera] | 10.48 µM | 2.62 µM | – | –
18 | ILKKIWKPIKKLF [IsCT-P, cDB AMP; Opisthacanthus madagascariensis] | 1.00 µM | 2.00 µM | – | –
19 | RRWCFRVCYRGFCYRKCR [Polyphemusin-1, cDB AMP; Limulus polyphemus] | 0.3 µM | 0.9 µM | – | –
20 | LNWGAILKHIIK [PNG-1, cDB AMP; Panurgus calcaratus] | 10.60 µM | 3.70 µM | – | –
21 | LNWGKILKHIIK [PNG-1/6, cDB AMP; Panurgus calcaratus] | 8.70 µM | 4.00 µM | – | –

Row | Compound | MIC S. aureus (S. aureus) | MIC E. coli (E. coli) | inhibition at 100 µM [1] | maximum growth inhibition ([1]; MDR K. pneumoniae, at 100 μM, complete resistance)
22 | GLHKVMREVLGYERNSYKKFFLR [Ixosin, cDB AMP; Ixodes sinensis] | 1.29 µM | 10.45 µM | – | –
23 | RRWCFRVCYKGFCYRKCR [Polyphemusin-2, cDB AMP; Limulus polyphemus] | 5.14 µM | 3.87 µM | – | –
24 | INLKAIAALAKKLLG [Mastoparan-like peptide 12c, cDB AMP; Vespa magnifica] | 1.95 µM | 3.90 µM | – | –
25 | FLFKLIPKVIKGLVKAIRK [AaeAP1 [S4.8.15K; A11K. N19K], cDB AMP; Androctonus aeneas] | 8.14 µM | 10.85 µM | – | –
26 | penicillin | – | – | – | ≤ 20%
27 | GMWSKILGHLIR [HAL-1, cDB AMP; Halictus sexcinctus] | 7.70 µM | 3.80 µM | – | –
28 | [H]/N=C(/N)N[C@H]1[C@H](O)[C@@H](O)[C@H](O[C@@H]2O[C@@H](C)[C@](O)(C=O)[C@H]2O[C@@H]2O[C@@H](CO)[C@H](O)[C@@H](O)[C@@H]2NC)[C@@H](N/C(N)=N\[H])[C@@H]1O [streptomycin] | – | – | ≤ 20% | –
29 | LNWGALLKHLLK [PNG-1/19, cDB AMP; Panurgus calcaratus] | 6.70 µM | 3.80 µM | – | –
30 | CRRLCYKQRCVTYCRGR [Gomesin, cDB AMP; Acanthoscurria gomesiana] | 12.10 µM | 0.80 µM | – | –
31 | FLFSLIPSAISGLISAFKGRR [Marmelittin, cDB AMP; Mesobuthus martensii] | 6.48 µM | 6.21 µM | – | –
32 | FIGAIARLLSKIFGKR [Bmkn2, cDB AMP; Mesobuthus martensii] | 0.60 µM | 1.50 µM | – | –
33 | VNWKKILGKIIKVVK [Lasioglossin LL-III, cDB AMP; Lasioglossum laticeps] | 3.90 µM | 1.40 µM | – | –
34 | QCRRLCYKQRCVTYCRGR [Gomesin c(1-18)[Gln1], cDB AMP; Acanthoscurria gomesiana] | 1.44 µM | 0.48 µM | – | –
35 | FLFKLIPKAIKGLIKAFK [AcrAP1a, cDB AMP; Androctonus crassicauda] | 8 µM | 4 µM | – | –
36 | VNWKKILGKIIKVAK [Lasioglossin LL-II, cDB AMP; Lasioglossum laticeps] | 9.00 µM | 1.40 µM | – | –
37 | FFGSLLSLGSKLLPSVFKLFQRKKE [Css54, cDB AMP; Centruroides suffusus suffusus] | 4.35 µM | 4.35 µM | – | –
38 | FLFKLIPKAIKKLISKFK [AamAP1 [S4K.H8K.G11.12K.A16K], cDB AMP; Androctonus amoreuxi] | 5.00 µM | 7.50 µM | – | –
39 | ILGKIWKIKKLF [IsCT precursor, cDB AMP; Opisthacanthus madagascariensis] | 2.00 µM | 2.00 µM | – | –
40 | LKWGAILKHIIK [PNG-1/3, cDB AMP; Panurgus calcaratus] | 11.70 µM | 3.70 µM | – | –
41 | VNWKKVLGKIIKVAK [Lasioglossin LL-I, cDB AMP; Lasioglossum laticeps] | 14.3 µM | 1.70 µM | – | –
42 | FLFKLIPKAIKGLVKAIRK [AaeAP2 [S4.8.15K; A11K. N19K], cDB AMP; Androctonus aeneas] | 8.24 µM | 10.99 µM | – | –
